From patent publication US20190315771A1, “NOVEL 2-ACYLAMINOTHIAZOLE DERIVATIVE AND PREPARATION METHOD THEREFOR AND USE THEREOF” (SICHUAN KELUN-BIOTECH BIOPHARMACEUTICAL CO., LTD., priority 2016, published 2019)

Experiments:
human TPOR = biological target: T1, human TPOR (Homo sapiens, UniProt P40238); test: Proliferation of BAF3/TPOR cells (MTS method, OD490); format: cell-based, mouse; conditions: BAF3 cells stably expressing human TPOR, cultured with compound 24 h
T1 construct: expressed in transfected cells; host or cells: mouse BAF3 cells
T1 sequence (P40238 26-635): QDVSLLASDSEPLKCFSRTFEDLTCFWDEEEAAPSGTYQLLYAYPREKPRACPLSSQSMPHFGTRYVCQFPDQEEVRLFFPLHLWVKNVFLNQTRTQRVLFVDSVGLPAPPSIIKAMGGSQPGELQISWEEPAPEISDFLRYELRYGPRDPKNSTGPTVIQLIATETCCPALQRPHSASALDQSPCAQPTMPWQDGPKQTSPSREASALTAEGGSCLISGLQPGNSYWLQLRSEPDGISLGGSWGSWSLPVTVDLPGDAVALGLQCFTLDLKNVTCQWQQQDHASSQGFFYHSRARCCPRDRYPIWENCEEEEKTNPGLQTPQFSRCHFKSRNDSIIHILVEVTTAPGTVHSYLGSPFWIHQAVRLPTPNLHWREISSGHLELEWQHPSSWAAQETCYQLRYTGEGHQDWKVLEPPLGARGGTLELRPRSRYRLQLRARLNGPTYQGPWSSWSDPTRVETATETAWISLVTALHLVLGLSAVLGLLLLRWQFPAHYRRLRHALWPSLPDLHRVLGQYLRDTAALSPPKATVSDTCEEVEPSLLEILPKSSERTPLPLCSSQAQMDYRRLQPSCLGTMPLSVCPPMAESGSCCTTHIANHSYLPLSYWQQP
Text: The TPO mimetic compound was synthesized in vitro, and the compound acted on the TPO receptor (TPOR) on the cell to stimulate cell proliferation and differentiation. The OD490 value was detected by the MTS method, and the more the number of cells, the larger the OD value, thereby detecting the response of the compound to cell proliferation and differentiation. The agonist concentration at which the increased signal arrived at the highest level was Emax, and the concentration of the compound at which the increased signal arrived at 50% of the signal of Emax was EC50. The activity of the compound was determinable by EC50, and the smaller the EC50, the higher the activity of the compound.
Mouse […] BAF3 stably expressing human TPOR were cultured in 1640 medium containing 10% FBS. On the day of the assay, the cells were counted and seeded in a 96-well plate at 1×10^4 cells/50 μL. 50 μL of different concentrations of the tested compound were added to the wells to a final concentration of 10000 nM, 3000 nM, 300 nM, 30 nM, 3 nM, 0.3 nM, 0.03 nM, 0.003 nM, 0.0003 nM, and the final concentration of DMSO was 1%. After the cells were cultured with the compound for 24 h at 37° C. in a 5% CO2 incubator, 10 μL of detection reagent (Promega, Cell Titer 96® Aqueous One Solution) was added. After mixing, the resulting mixture was incubated for 3 h in the incubator. The OD 490 was detected using a multifunctional automatic microplate reader, and the EC50 was fitted using GraphPad Prism 5 software.

hERG potassium channel = hERG potassium channel (Homo sapiens, UniProt Q12809); test: hERG test, electrophysiological manual patch clamp; format: cell-based; conditions: for hERG potassium channel inhibition (judgement in words): conclusion from Table 2; for IC50: manual patch clamp, IC50 >10 μM judged as no inhibitory effect on hERG
hERG potassium channel, sequence (Q12809 whole entry): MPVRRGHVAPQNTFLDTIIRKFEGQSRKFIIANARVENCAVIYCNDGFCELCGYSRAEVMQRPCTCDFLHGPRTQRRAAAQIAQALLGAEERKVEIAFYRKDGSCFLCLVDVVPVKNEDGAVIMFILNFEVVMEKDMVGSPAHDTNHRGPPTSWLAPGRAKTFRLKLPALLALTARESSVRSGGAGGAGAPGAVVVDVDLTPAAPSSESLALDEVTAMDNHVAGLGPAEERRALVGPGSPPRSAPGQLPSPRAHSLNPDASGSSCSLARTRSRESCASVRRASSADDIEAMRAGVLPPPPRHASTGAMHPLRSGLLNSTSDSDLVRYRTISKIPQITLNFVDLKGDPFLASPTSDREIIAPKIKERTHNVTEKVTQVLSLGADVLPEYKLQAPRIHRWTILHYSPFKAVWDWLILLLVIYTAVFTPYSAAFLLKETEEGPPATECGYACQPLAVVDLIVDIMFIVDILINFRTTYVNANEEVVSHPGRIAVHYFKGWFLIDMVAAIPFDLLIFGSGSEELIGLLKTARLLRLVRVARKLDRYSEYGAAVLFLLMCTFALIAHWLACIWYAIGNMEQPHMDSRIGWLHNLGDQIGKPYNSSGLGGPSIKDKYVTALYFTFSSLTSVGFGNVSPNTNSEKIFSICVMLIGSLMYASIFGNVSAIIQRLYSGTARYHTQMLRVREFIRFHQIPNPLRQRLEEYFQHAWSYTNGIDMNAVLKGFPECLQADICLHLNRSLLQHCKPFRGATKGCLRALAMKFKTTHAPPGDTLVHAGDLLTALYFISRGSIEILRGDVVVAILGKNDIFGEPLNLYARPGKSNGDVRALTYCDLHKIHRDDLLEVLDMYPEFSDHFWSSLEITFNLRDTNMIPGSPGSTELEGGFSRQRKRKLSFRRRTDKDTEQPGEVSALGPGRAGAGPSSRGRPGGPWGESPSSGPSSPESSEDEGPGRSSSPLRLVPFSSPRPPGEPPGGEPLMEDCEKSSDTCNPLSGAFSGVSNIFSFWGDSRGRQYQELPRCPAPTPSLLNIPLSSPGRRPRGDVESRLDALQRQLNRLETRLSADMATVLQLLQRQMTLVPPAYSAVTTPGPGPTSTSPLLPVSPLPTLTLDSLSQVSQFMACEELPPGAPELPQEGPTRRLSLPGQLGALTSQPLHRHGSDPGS
Text: In cardiomyocytes, the potassium channel encoded by hERG (human Ether-a-go-go Related Gene) mediated the delayed rectifier potassium current (lKr). The IKr inhibition was the most important mechanism for drug-induced QT prolongation and induction of arrhythmia.
The electrophysiological manual patch clamp was used to detect the effect of the tested compound on the hERG potassium channel.

EC50 (human TPOR) [nM] | SMILES | hERG potassium channel inhibition (judgement in words) (hERG potassium channel) | IC50 (hERG potassium channel) [nM]
0.1 | O=C(Nc1nc(-c2cc(Cl)cs2)c(N2CC3CCN(C4[C@H]5C[C@@H]6C[C@@H](C[C@H]4C6)C5)C3C2)s1)c1cnc(N2CCC(C(=O)O)CC2)c(Cl)c1 (stereo partly drawn) [Example 10, 1-(3-chloro-5-((4-(4-chlorothiophen-2-yl)-5-(1-(1R,3R,5R,7R)-adamantanyl-hexahydropyrrolo[3,4-b]pyrrol-5(1H)-yl)-thiazol-2-yl)carbamoyl)-pyridin-2-yl)-piperidine-4-carboxylic acid] | – | –
0.21 | O=C(Nc1nc(-c2cc(Cl)cs2)c(N2CC3CCN(C4C[C@H]5CC[C@@H]4C5)C3C2)s1)c1cnc(N2CCC(C(=O)O)CC2)c(Cl)c1 (stereo in doubt) [Example 9, 1-[3-chloro-5-((4-(4-chlorothiophen-2-yl)-5-(1-(bicyclo[2.2.1]hept-2-yl)-hexahydropyrrolo[3,4-b]pyrrol-5(1H)-yl)thiazol-2-yl)carbamoyl)pyridin-2-yl]piperidine-4-carboxylic acid] | – | –
0.57 | C/C(=C\c1c(Cl)cc(C(=O)Nc2nc(-c3cccc(C(F)(F)F)c3)c(N3CC4CCN(C5CCCCC5)C4C3)s2)cc1Cl)C(=O)O (centres unmarked) [Example 35, (E)-3-(2,6-dichloro-4-(5-(1-cyclohexyl-hexahydropyrrolo[3,4-b]pyrrol-5-yl)-4-(3-trifluoromethylphenyl)-thiazol-2-carbamoyl)-phenyl)-2-methyl-acrylic acid] | – | –
0.1 | C/C(=C\c1c(Cl)cc(C(=O)Nc2nc(-c3cc(Cl)cs3)c(N3CC4CCN(C5CCCCC5)C4C3)s2)cc1Cl)C(=O)O (centres unmarked) [Example 36, (E)-3-(2,6-dichloro-4-((4-(4-chlorothiophen-2-yl)-5-(1-cyclohexyl-hexahydropyrrolo[3,4-b]pyrrol-5(1H)-yl)-thiazol-2-yl)-carbamoyl)-phenyl)-2-methylacrylic acid] | – | –
0.08 | O=C(Nc1nc(-c2cc(Cl)cs2)c(N2CC3CCN(C4CCCCC4)C3C2)s1)c1cnc(N2CCC(C(=O)O)CC2)c(Cl)c1 (centres unmarked) [Example 5, 1-(3-chloro-5-((4-(4-chlorothiophen-2-yl)-5-(1-cyclohexyl-hexahydropyrrolo[3,4-b]pyrrol-5(1H)-yl)-thiazol-2-yl)-carbamoyl)-pyridin-2-yl)-piperidine-4-carboxylic acid] | – | –
0.59 | C/C(=C\c1c(Cl)cc(C(=O)Nc2nc(-c3cc(Cl)cs3)c(N3CC4CCN(C5C[C@H]6CC[C@@H]5C6)C4C3)s2)cc1Cl)C(=O)O (some centres unmarked) [Example 45, (E)-3-(4-((5-(1-(bicyclo[2.2.1]hept-2-yl)-hexahydropyrrolo[3,4-b]pyrrol-5(1H)-yl)-4-(4-chlorothiophen-2-yl)-thiazol-2-yl)-carbamoyl)-2,6-dichlorophenyl)-2-methylacrylic acid] | – | –
0.08 | C/C(=C\c1c(Cl)cc(C(=O)Nc2nc(-c3cc(Cl)cs3)c(N3CC4CCN(C5[C@H]6C[C@@H]7C[C@@H](C[C@H]5C7)C6)C4C3)s2)cc1Cl)C(=O)O (stereo partly drawn) [Example 46, (E)-3-(4-((5-(1-((1R,3R,5R,7R)-adamantan-2-yl)hexahydropyrrolo[3,4-b]pyrrol-5(1H)-yl)-4-(4-chlorothiophen-2-yl)thiazol-2-yl)carbamoyl)-2,6-dichlorophenyl)-2-methylacrylic acid] | – | –
0.13 | C/C(=C\c1c(Cl)cc(C(=O)Nc2nc(-c3cc(Cl)cs3)c(N3CC4CCN(C5CCCCCC5)C4C3)s2)cc1Cl)C(=O)O (centres unmarked) [Example 44, (E)-3-(4-((5-(1-cycloheptyl-hexahydropyrrolo[3,4-b]pyrrol-5(1H)-yl)-4-(4-chlorothiophen-2-yl)-thiazol-2-yl)-carbamoyl)-2,6-dichlorophenyl)-2-methylacrylic acid] | – | –
0.05 | C/C(=C\c1c(Cl)cc(C(=O)Nc2nc(-c3cc(Cl)cs3)c(N3C[C@H]4CCN(C5[C@H]6C[C@@H]7C[C@@H](C[C@H]5C7)C6)[C@H]4C3)s2)cc1Cl)C(=O)O (stereo partly drawn) [Example 51, (E)-3-(4-((5-((3aR,6aR)-1-((1R,3R,5R,7R)-adamantan-2-yl)hexahydropyrrolo[3,4-b]pyrrol-5(1H)-yl)-4-(4-chlorothiophen-2-yl)thiazol-2-yl)carbamoyl)-2,6-dichlorophenyl)-2-methylacrylic acid] | no hERG inhibition | > 30000
0.6 | C/C(=C\c1c(Cl)cc(C(=O)Nc2nc(-c3cc(Cl)cs3)c(N3CCC4C(CCN4C4CCCCC4)C3)s2)cc1Cl)C(=O)O (centres unmarked) [Example 48] | – | –
0.07 | C/C(=C\c1c(Cl)cc(C(=O)Nc2nc(-c3cc(Cl)cs3)c(N3CC4CCN(C5CCCC5)C4C3)s2)cc1Cl)C(=O)O (centres unmarked) [Example 40, (E)-3-(2,6-dichloro-4-((4-(4-chlorothiophen-2-yl)-5-(1-cyclopentyl-hexahydropyrrolo[3,4-b]pyrrol-5(1H)-yl)-thiazol-2-yl)-carbamoyl)-phenyl)-2-methylacrylic acid] | – | –
0.89 | O=C(Nc1nc(-c2cc(Cl)cs2)c(N2CC3CCC2CN3C2CCCCC2)s1)c1cnc(N2CCC(C(=O)O)CC2)c(Cl)c1 (centres unmarked) [Example 29, 3′-chloro-5′-(4-(4-chlorothiophen-2-yl)-5-(5-cyclohexyl-2,5-diazabicyclo[2.2.2]octan-2-yl)-thiazol-2-carbamoyl)-3,4,5,6-tetrahydro-2H-[1,2′]bipyridine-4-carboxylic acid] | – | –
1.11 | O=C(Nc1nc(-c2cc(Cl)cs2)c(N2CC3CCN(C4CCCCCC4)C3C2)s1)c1cnc(N2CCC(C(=O)O)CC2)c(Cl)c1 (centres unmarked) [Example 8, 1-(3-chloro-5-((4-(4-chlorothiophen-2-yl)-5-(1-cycloheptyl-hexahydropyrrolo[3,4-b]pyrrol-5(1H)-yl)-thiazol-2-yl)-carbamoyl)-pyridin-2-yl)-piperidine-4-carboxylic acid] | – | –
0.13 | C/C(=C\c1c(Cl)cc(C(=O)Nc2nc(-c3cc(Cl)cs3)c(N3C[C@@H]4CCN(C5[C@H]6C[C@@H]7C[C@@H](C[C@H]5C7)C6)[C@@H]4C3)s2)cc1Cl)C(=O)O (stereo partly drawn) [Example 52, (E)-3-(4-((5-((3aS,6aS)-1-((1S,3S,5S,7S)-adamantan-2-yl)hexahydropyrrolo[3,4-b]pyrrol-5(1H)-yl)-4-(4-chlorothiophen-2-yl)thiazol-2-yl)carbamoyl)-2,6-dichlorophenyl)-2-methylacrylic acid] | – | 7900
0.21 | O=C(Nc1nc(-c2cc(Cl)cs2)c(N2CC3CCN(C4CCC4)C3C2)s1)c1cnc(N2CCC(C(=O)O)CC2)c(Cl)c1 (centres unmarked) [Example 2, 1-(3-chloro-5-((4-(4-chlorothiophen-2-yl)-5-(1-cyclobutyl-hexahydropyrrolo[3,4-b]-pyrrol-5(1H)-yl)-thiazol-2-yl)-carbamoyl)-pyridin-2-yl)-piperidine-4-carboxylic acid] | – | –
0.43 | C/C(=C\c1c(Cl)cc(C(=O)Nc2nc(-c3cc(Cl)cs3)c(N3CC4CCN(C5CC(F)(F)C5)C4C3)s2)cc1Cl)C(=O)O (centres unmarked) [Example 38, (E)-3-(4-((5-(1-(3,3-difluorocyclobutyl)-hexahydropyrrolo[3,4-b]pyrrol-5(1H)-yl)-4-(4-chlorothiophen-2-yl)-thiazol-2-yl)-carbamoyl)-2,6-dichlorophenyl)-2-methylacrylic acid] | – | –
0.34 | C/C(=C\c1c(Cl)cc(C(=O)Nc2nc(-c3cc(Cl)cs3)c(N3CC4CCN(C5CCC5)C4C3)s2)cc1Cl)C(=O)O (centres unmarked) [Example 37, (E)-3-(2,6-dichloro-4-((4-(4-chlorothiophen-2-yl)-5-(1-cyclobutyl-hexahydropyrrolo[3,4-b]pyrrol-5(1H)-yl)-thiazol-2-yl)-carbamoyl)-phenyl)-2-methylacrylic acid] | – | –

SMILES | EC50 (human TPOR) [nM] | hERG potassium channel inhibition (judgement in words) (hERG potassium channel) | IC50 (hERG potassium channel) [nM]
CCCCCCO[C@@H](C)c1cccc(-c2csc(NC(=O)c3cc(Cl)c(/C=C(\C)C(=O)O)c(Cl)c3)n2)c1OC [Lusutrombopag, reference compound] | 1.93 | significant cardiac hERG potassium channel inhibition | 2370
